The subject of test [1] is Ileum. Kind of test: Ratio IC50 for papaverine to IC50 for compound for antispasmodic activity in rat ileum. In kind it is functional.
In test [2] the test system is Jejunum. In words: Antispasmodic activity in Oryctolagus cuniculus (rabbit) jejunum assessed as K+-induced contraction at 1 mg/ml. In kind it is functional.

By inhibition is commonly meant the percentage by which the read-out fell short of the control. Consider `CO[C@]1(C)C[C@H](O)[C@@H]2[C@H](OC(=O)[C@H]2C)[C@@H]2[C@H]1C[C@@H](O)[C@@]2(C)O`, for which the “Ratio IC50” value in test [1] is given as 0.09. In test [2], the inhibition at 1000 µg/mL was determined as 43.4%.

For the compound `COc1ccc(CCN(C)CCCC(C#N)(c2ccc(OC)c(OC)c2)C(C)C)cc1OC` (stereo not drawn) [VERAPAMIL], the inhibition at 1000 µg/mL in test [2] turned out to be 67.5%.

With `CO[C@]1(C)C[C@H](O)[C@@H]2[C@H](OC(=O)[C@H]2C)[C@@H]2[C@H]1CC[C@@]2(C)O`, the “Ratio IC50” value in test [1] was found to be 0.083. For the same compound, in test [2], the inhibition at 1000 µg/mL is 39.5%.

As for `COc1ccc(Cc2nccc3cc(OC)c(OC)cc23)cc1OC` [PAPAVERINE], the “Ratio IC50” value in test [1] is 1.

Turning to `C=C1CC[C@H]2O[C@]2(C)CC[C@@H]2[C@@H]1CC2(C)C` [(-)-CARYOPHYLLENE OXIDE], the “Ratio IC50” value in test [1] turned out to be 0.071. Also, the inhibition at 1000 µg/mL in test [2] is 31.6%.

The values are drawn from ChEMBL document CHEMBL3046256, “Sesquiterpene lactones: antispasmodic principles of the freshwater algae Hydrodictyon reticulatum” (Med Chem Res, 2012).
